Results reported in patent US4234511A, “Dialkylamino-N,N-bis(phosphonoalkylene)alkylamines and use in aqueous systems as precipitation and corrosion inhibitors” (Buckman Laboratories, Inc., priority 1979, dated 1980).
Structures can show the parent of a compound that is named as a salt.

What was measured:
[1] = Calcium Carbonate Antiprecipitation Tests; details: pH 9, 25° C., approx. 18 hours
Protocol: To evaluate the effect of the compounds of the present invention on the precipitation of calcium carbonate, measured volume of stock solution (prepared with demineralized water) of the phosphonic acids or their reaction product with epichlorohydrin were added to 100-ml portions of a calcium hydroxide solution (0.40 g Ca(OH)2 per liter). Then 100 ml of a sodium bicarbonate solution (0.50 g NaHCO3 per liter) was added to each portion of calcium hydroxide solution. The pH of each portion was adjusted to 9.00 (±0.05). The test solutions were then agitated on a rotary shaker for approximately 18 hours at a temperature of 25° C. At the end of this time insoluble material was removed by filtration with Whatman No. 4 filter paper and the calcium ion concentration in the filtrate was determined by titration with a standard ethylenediamine tetraacetic acid solution. The percent inhibition (Table 1) was calculated by comparing the test solution values with two controls included in every test series.

[2] = Corrosion inhibition, circulating Memphis tap water with mild steel coupons; details: initial pH 7.5, 50° C., three days
Protocol: The test apparatus included a sump, a flow circuit, a circulating pump and a heater. […] The test fluid was Memphis tap water with the pH adjusted to 7.5 and the temperature was maintained at 50° C.±2° C.
The test fluid containing various concentrations of the compositions described herein was circulated continuously through the system containing the test coupons for a period of three days. At the end of this period, the coupons were removed, cleaned and weighed. The corrosion rates were calculated in milligrams per square decimeter per day (MDD).

Compound	Inhibition of Calcium Carbonate Precipitation, percent inhibition ([1]; 1.0 parts per million)	Inhibition of Calcium Carbonate Precipitation, percent inhibition ([1]; 2.0 parts per million)	Inhibition of Calcium Carbonate Precipitation, percent inhibition ([1]; 3.0 parts per million)	Inhibition of Calcium Carbonate Precipitation, percent inhibition ([1]; 4.0 parts per million)	Inhibition of Calcium Carbonate Precipitation, percent inhibition ([1]; 5.0 parts per million)	Inhibition of Calcium Carbonate Precipitation, percent inhibition ([1]; 6.0 parts per million)	Inhibition of Calcium Carbonate Precipitation, percent inhibition ([1]; 7.0 parts per million)	Inhibition of Calcium Carbonate Precipitation, percent inhibition ([1]; 8.0 parts per million)	Inhibition of Calcium Carbonate Precipitation, percent inhibition ([1]; 9.0 parts per million)	Inhibition of Calcium Carbonate Precipitation, percent inhibition ([1]; 10.0 parts per million)	Corrosion rate, Average ([2]; 50 parts per million)	Corrosion rate, Copper Couple ([2]; 50 parts per million)	Corrosion rate, Sump 1 ([2]; 50 parts per million)	Corrosion rate, Sump 2 ([2]; 50 parts per million)	Corrosion Inhibition, Percent ([2]; 100 parts per million)	Corrosion rate, Average ([2]; 100 parts per million)	Corrosion rate, Copper Couple ([2]; 100 parts per million)	Corrosion rate, Sump 1 ([2]; 100 parts per million)	Corrosion rate, Sump 2 ([2]; 100 parts per million)	also measured
CN(C)CCCN(CP(=O)(O)O)CP(=O)(O)O [A, 3-(N,N-Dimethylamino)-N',N'-bis(phosphonomethyl)propylamine Hydrochloride]	0%	0%	4.2%	41.6%	50.9%	54.5%	64.1%	60.6%	69.4%	67.5%	1.51 Miligrams per decimeter per day	3.01 Miligrams per decimeter per day	1.33 Miligrams per decimeter per day	0.18 Miligrams per decimeter per day	99.5%	1.24 Miligrams per decimeter per day	1.06 Miligrams per decimeter per day	0.89 Miligrams per decimeter per day	1.77 Miligrams per decimeter per day	Corrosion Inhibition, Percent ([2]; 50 parts per million): 99.4%; Corrosion Inhibition, Percent ([2]; 200 parts per million): 99.2%; Corrosion rate, Average ([2]; 200 parts per million): 2.13 Miligrams per decimeter per day; Corrosion rate, Copper Couple ([2]; 200 parts per million): 3.90 Miligrams per decimeter per day; Corrosion rate, Sump 1 ([2]; 200 parts per million): 1.15 Miligrams per decimeter per day; Corrosion rate, Sump 2 ([2]; 200 parts per million): 1.33 Miligrams per decimeter per day
CN(C)CCN(CP(=O)(O)O)CP(=O)(O)O [F, 2-Dimethylamino-N',N'-bis(phosphonomethyl)ethylamine Hydrochloride]	6.2%	17.8%	32.3%	35.3%	49.5%	55.6%	65.2%	69.6%	77.7%	78.6%	35.46 Miligrams per decimeter per day	40.08 Miligrams per decimeter per day	12.94 Miligrams per decimeter per day	53.37 Miligrams per decimeter per day	99.4%	1.57 Miligrams per decimeter per day	1.95 Miligrams per decimeter per day	1.24 Miligrams per decimeter per day	1.51 Miligrams per decimeter per day	Corrosion Inhibition, Percent ([2]; 150 parts per million): 99.6%; Corrosion rate, Average ([2]; 150 parts per million): 1.06 Miligrams per decimeter per day; Corrosion rate, Copper Couple ([2]; 150 parts per million): 0.98 Miligrams per decimeter per day; Corrosion rate, Sump 1 ([2]; 150 parts per million): 1.15 Miligrams per decimeter per day; Corrosion rate, Sump 2 ([2]; 150 parts per million): 1.06 Miligrams per decimeter per day
